From the NIST ThermoML archive (doi:10.1016/j.jct.2009.11.014)
Numbers after ± are expanded uncertainties.

Conditions: Liquid; for viscosity: Stony Brook Scientific falling needle HPHTV-100 viscometer; for mass density: vibrating tube

CCn1cc[n+](C)c1.F[B-](F)(F)F [1-ethyl-3-methylimidazolium tetrafluoroborate]
Conditions	mass density [kg/m3]	viscosity [mPa·s]
303.95 K, 10300 kPa	–	34.2 ± 3.6
304.05 K, 120 kPa	–	30.9 ± 3.3
304.05 K, 680 kPa	–	31.1 ± 3.3
304.05 K, 1730 kPa	–	31.2 ± 3.3
304.05 K, 2710 kPa	–	31.4 ± 3.3
304.05 K, 4300 kPa	–	32.2 ± 3.4
304.05 K, 6340 kPa	–	32.6 ± 3.4
304.05 K, 8250 kPa	–	33.1 ± 3.5
304.05 K, 12210 kPa	–	34.3 ± 3.6
304.05 K, 14300 kPa	–	35.2 ± 3.7
308.15 K, 100 kPa	1277.93 ± 1.6	–
308.15 K, 2000 kPa	1278.81 ± 1.6	–
308.15 K, 4000 kPa	1279.69 ± 1.6	–
308.15 K, 6000 kPa	1280.58 ± 1.6	–
308.15 K, 8000 kPa	1281.46 ± 1.6	–
308.15 K, 10000 kPa	1282.35 ± 1.6	–
308.15 K, 12000 kPa	1283.22 ± 1.6	–
308.15 K, 14000 kPa	1284.11 ± 1.6	–
308.15 K, 20000 kPa	1286.68 ± 1.6	–
308.15 K, 30000 kPa	1290.85 ± 1.6	–
308.15 K, 40000 kPa	1294.96 ± 1.6	–
308.15 K, 50000 kPa	1298.92 ± 1.7	–
308.15 K, 60000 kPa	1302.82 ± 1.7	–
313.15 K, 100 kPa	1274.17 ± 1.6	–
313.15 K, 2000 kPa	1275.04 ± 1.6	–
313.15 K, 4000 kPa	1275.93 ± 1.6	–
313.15 K, 6000 kPa	1276.8 ± 1.6	–
313.15 K, 8000 kPa	1277.73 ± 1.6	–
313.15 K, 10000 kPa	1278.61 ± 1.6	–
313.15 K, 12000 kPa	1279.51 ± 1.6	–
313.15 K, 14000 kPa	1280.39 ± 1.6	–
313.15 K, 20000 kPa	1283.04 ± 1.6	–
313.15 K, 30000 kPa	1287.29 ± 1.6	–
313.15 K, 40000 kPa	1291.42 ± 1.6	–
313.15 K, 50000 kPa	1295.43 ± 1.7	–
313.15 K, 60000 kPa	1299.37 ± 1.7	–
313.65 K, 10170 kPa	–	25.7 ± 2.7
313.65 K, 12290 kPa	–	26 ± 2.7
313.65 K, 14100 kPa	–	26.2 ± 2.7
313.75 K, 1760 kPa	–	23.8 ± 2.5
313.75 K, 2730 kPa	–	24.1 ± 2.5
313.75 K, 4350 kPa	–	24.5 ± 2.6
313.75 K, 6270 kPa	–	24.9 ± 2.6
313.75 K, 8230 kPa	–	25.1 ± 2.6
313.85 K, 100 kPa	–	23.3 ± 2.4
313.85 K, 700 kPa	–	23.4 ± 2.4
313.85 K, 10300 kPa	–	25.6 ± 2.7
318.15 K, 100 kPa	1270.39 ± 1.6	–
318.15 K, 2000 kPa	1271.3 ± 1.6	–
318.15 K, 4000 kPa	1272.25 ± 1.6	–
318.15 K, 6000 kPa	1273.14 ± 1.6	–
318.15 K, 8000 kPa	1274.05 ± 1.6	–
318.15 K, 10000 kPa	1274.96 ± 1.6	–
318.15 K, 12000 kPa	1275.87 ± 1.6	–
318.15 K, 14000 kPa	1276.72 ± 1.6	–
318.15 K, 20000 kPa	1279.36 ± 1.6	–
318.15 K, 30000 kPa	1283.7 ± 1.6	–
318.15 K, 40000 kPa	1287.8 ± 1.6	–
318.15 K, 50000 kPa	1291.92 ± 1.6	–
318.15 K, 60000 kPa	1295.92 ± 1.7	–
323.15 K, 100 kPa	1266.69 ± 1.6	–
323.15 K, 2000 kPa	1267.58 ± 1.6	–
323.15 K, 4000 kPa	1268.52 ± 1.6	–
323.15 K, 6000 kPa	1269.45 ± 1.6	–
323.15 K, 8000 kPa	1270.37 ± 1.6	–
323.15 K, 10000 kPa	1271.28 ± 1.6	–
323.15 K, 12000 kPa	1272.19 ± 1.6	–
323.15 K, 14000 kPa	1273.08 ± 1.6	–
323.15 K, 20000 kPa	1275.76 ± 1.6	–
323.15 K, 30000 kPa	1280.1 ± 1.6	–
323.15 K, 40000 kPa	1284.32 ± 1.6	–
323.15 K, 50000 kPa	1288.41 ± 1.6	–
323.15 K, 60000 kPa	1292.42 ± 1.7	–
323.65 K, 100 kPa	–	18.4 ± 1.9
323.65 K, 700 kPa	–	18.6 ± 1.9
323.65 K, 1700 kPa	–	18.7 ± 2
323.75 K, 1200 kPa	–	18.5 ± 1.9
323.75 K, 2300 kPa	–	18.7 ± 2
323.75 K, 4200 kPa	–	18.9 ± 2
323.75 K, 4500 kPa	–	18.9 ± 2
323.75 K, 6100 kPa	–	19 ± 2
323.75 K, 6600 kPa	–	19.4 ± 2
323.75 K, 8200 kPa	–	19.3 ± 2
323.75 K, 10200 kPa	–	19.7 ± 2.1
323.75 K, 12400 kPa	–	19.9 ± 2.1
323.75 K, 14300 kPa	–	20.1 ± 2.1
